The record followed here is ChEMBL document CHEMBL5726672, “Morpholin-pyridine derivatives” (2017).

For the test, the target named is Trace amine-associated receptor 1 (Mus musculus, UniProt Q923Y8). As to the kind of experiment: Radioligand Binding Assay : HEK-293 cells stably expressing mouse TAAR1 were maintained at 37° C. and 5% CO2 in DMEM high glucose medium, containing fetal calf serum (10%, heat inactivated for 30 min at 56° C.), penicillin/streptomycin (1%), and 375 μg/ml geneticin (Gibco). Cells were released from culture flasks using trypsin/EDTA, harvested, washed twice with ice-cold PBS (without Ca2+ and Mg2+), pelleted at 1,000 rpm for 5 min at 4° C., frozen and stored at −80° C. Frozen pellets were suspended in 20 ml HEPES-NaOH (20 mM, pH 7.4) containing 10 mM EDTA and homogenized with a Polytron (PT 6000, Kinematica) at 14′000 rpm for 20 s. The homogenate was centrifuged at 48,000×g for 30 min at 4° C. Subsequently, the supernatant was removed and discarded, and the pellet resuspended in 20 ml HEPES-NaOH (20 mM, pH 7.4) containing 0.1 mM EDTA using the Polytron (20 s at 14′000 rpm). This procedure was repeated and the final pellet resuspended in HEPES-NaOH containing 0.1 mM EDTA and homogenized using the Polytron. Typically, aliquots of 2 ml membrane portions were stored at −80° C. With each new membrane batch the dissociation constant (Kd) was determined via a saturation curve.
Sequence of Trace amine-associated receptor 1 (Q923Y8 whole entry): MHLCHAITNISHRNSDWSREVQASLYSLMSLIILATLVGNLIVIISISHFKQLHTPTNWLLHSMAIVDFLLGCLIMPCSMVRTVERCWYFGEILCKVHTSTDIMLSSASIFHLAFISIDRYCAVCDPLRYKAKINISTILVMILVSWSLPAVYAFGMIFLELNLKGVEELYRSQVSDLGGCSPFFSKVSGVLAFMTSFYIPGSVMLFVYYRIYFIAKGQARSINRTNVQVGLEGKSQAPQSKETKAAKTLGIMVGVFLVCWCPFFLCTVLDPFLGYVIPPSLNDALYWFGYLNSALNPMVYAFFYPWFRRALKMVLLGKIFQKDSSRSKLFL

Take `CCCc1n[nH]c(C(=O)Nc2ccc(C3CNCCO3)nc2)c1Cl` (racemic): the Ki came to 5.6 nM.
